In patent publication US8952054B2, “Small molecule inhibitors of MUC1 and methods of identifying the same” (Dana-Farber Cancer Institute, Inc., priority 2010, dated 2015):
Each block holds one molecule with its values, some of them ahead of it.

What was measured:
[1] = target: T1, MUC1-CD (Homo sapiens, UniProt P15941); assay: Plate-based MUC1-CD dimerization inhibition assay (primary screening); assay type: biochemical; conditions: library of Table 1
T1 construct: the 72 aa cytoplasmic domain (CD); His; made in house
T1 sequence (P15941 1184-1255 limits assumed): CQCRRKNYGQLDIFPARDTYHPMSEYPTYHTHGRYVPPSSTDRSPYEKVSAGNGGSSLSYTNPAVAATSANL
Experimental: FIG. 6—Schematic Illustration of Primary HTS Screening Assay for MUC1-CD Dimerization. MUC1-CD protein was coated on a 96 well plate and then incubated with Biotinylated MUC1-CD that binds to non-biotinylated MUC1-CD protein by dimer formation. Bound biotinylated MUC1-CD protein was detected by incubation with Streptavin-HRP+peroxidase substrate system.
FIGS. 11A-C—Identification of MUC1-CD dimerization inhibitors in a small molecule screen. (FIG. 11A) Schematic representation of the MUC1-C subunit with the 58 amino acid (aa) extracellular domain (ECD), the 28 aa transmembrane domain (TD) and the 72 aa cytoplasmic domain (CD; SEQ ID NO: 1). The sequence of MUC1-CD is included with highlighting of the CQC dimerization motif. (FIG. 11B) The assay for identification of MUC1-CD dimerization inhibitors is depicted with the following steps: (i) coating of MUC1-CD onto a microplate, (ii) adding soluble biotinylated MUC1-C and […] compound, and (iii) addition of streptavidin-HRP and then peroxide with conversion by HRP to a blue color. The signal is measured by EnVision and proportional to the amount of bound biotin-labeled MUC1-CD.
FIGS. 12A-D—Apigenin is an inhibitor of MUC1-CD dimerization in vitro and in cells. (FIG. 12A) Structures of apigenin and its analogue baicalein. Using the in vitro screening assay, dimerization of MUC1-CD was assessed in the presence of 100 μM apigenin or 100 μM baicalein each dissolved in 0.1% DMSO. The results (mean±SD of 3 determinations) are expressed as percentage of control dimerization in the presence of DMSO alone. (FIG. 12B) MUC1-CD dimerization was assessed in the presence of the indicated concentrations of apigenin in the in vitro screening assay. […] (FIG. 12C) Soluble MUC1-CD was incubated in the presence of 1% DMSO, 1 mM apigenin or 1 mM baicalein for 1 h at room temperature. Monomers and dimmers were assessed by electrophoresis in a non-reducing gel and immunoblotting with anti-MUC1-C. (FIG. 12D) 293 cells were transiently transfected to express an empty vector or GFP-MUC1-CD and Flag-MUC1-CD. At six hours after transfection, the cells were left untreated, and treated with 75 μM apigenin or baicalein for 3 days. Whole-cell lysates were precipitated with anti-Flag, and the precipitates were immunoblotted with the indicated antibodies.
Multi-well (96- or 384-well) plates are coated with non-biotinylated MUC1-CD, and biotinylated MUC1-CD is added to the plates to initiate MUC1-CD dimerization or oligomerization. A luminescent substrate for biotin binding is added to the plate, followed by washing. Resulting fluorescence is detected by luminescence detection at absorbance 405 nm. A complete schematic illustration of this assay is described in […]. Test compounds are added at multiple concentrations to the plates and, following incubation and washing, the plates are read for luminescent detection. The formation of MUC1-CD dimers is detected.
To develop a HTS assay for compounds that inhibit MUC1-CD dimerization, the inventors generated purified His-tagged MUC1-CD protein. They also generated a biotin-labeled His-tagged MUC1-CD protein using a standard biotinylation kit. Biotinylated and non-biotinylated proteins were purified through Nickel columns.
The inventors coated 96- or 384-well plates with non-biotinylated MUC1-CD protein and added biotinylated MUC1-CD protein to the plates to initiate MUC1-CD/MUC1-CD dimerization or oligomerization. They then added a substrate to the plate which will bind to the biotinylated protein (only at the dimer or oligomer state) and the resultant fluorescence was detected by luminescence detection at absorbance 405 nm. A complete schematic illustration of this assay is described in FIG. 6.
Individual compounds from the chemical libraries were then added at multiple concentrations (0.01 μM to 100 μM) to the plates and following incubation and washing, the plates were read by luminescence detection at […]. […]

[2] = target: xanthine oxidase (Homo sapiens, UniProt P47989); conditions: cited from earlier work
[3] = tested on: mitogen-activated protein kinase kinase (MEK); conditions: cited from earlier work
[4] = target: T2, aryl hydrocarbon receptor (AHR) (Rattus norvegicus, UniProt P41738); conditions: rat liver cytosol, added just before TCDD; cited from earlier work
T2 construct: Addition of PD98059 to rat liver cytosol just before the addition of TCDD; from tissue; host or cells: rat liver cytosol

[5] = tested on: hyperammonemia; conditions: oral administration, ammonium chloride-treated rats; cited from earlier work
[6] = tested on: MUC1-expressing cancer cells; assay: Secondary screen against MUC1-expressing cancer cells in vitro; assay type: cell-based; conditions: legend: ZR-75-1 breast carcinoma cells, 2 days, anti-MUC1-C immunoblot
Experimental: ZR-75-1 breast carcinoma cells were treated with […] Kaempterol for 2 days. Total cell lysates were then analyzed by immunoblotting with anti-MUC1-C antibody (FIG. 17A) or with anti-Actin antibodies (FIG. 17B).
Initial screens were performed in the presence of compounds at a concentration of 100 μM.

[7] = cited from earlier work
[8] = tested on: severe sepsis; conditions: from about 31% without; cited from earlier work
[9] = target: T3, His-MUC1-CD (Homo sapiens, UniProt P15941); conditions: BIAcore analysis, Leng et al., 2007; read-out: dissociation constant (Kd) of MUC1-CD dimers; cited from earlier work
T3 construct: made in house
T3 sequence (P15941 1184-1255): T1 sequence (P15941 1184-1255 limits assumed)

T2 sequence (P41738 10-853): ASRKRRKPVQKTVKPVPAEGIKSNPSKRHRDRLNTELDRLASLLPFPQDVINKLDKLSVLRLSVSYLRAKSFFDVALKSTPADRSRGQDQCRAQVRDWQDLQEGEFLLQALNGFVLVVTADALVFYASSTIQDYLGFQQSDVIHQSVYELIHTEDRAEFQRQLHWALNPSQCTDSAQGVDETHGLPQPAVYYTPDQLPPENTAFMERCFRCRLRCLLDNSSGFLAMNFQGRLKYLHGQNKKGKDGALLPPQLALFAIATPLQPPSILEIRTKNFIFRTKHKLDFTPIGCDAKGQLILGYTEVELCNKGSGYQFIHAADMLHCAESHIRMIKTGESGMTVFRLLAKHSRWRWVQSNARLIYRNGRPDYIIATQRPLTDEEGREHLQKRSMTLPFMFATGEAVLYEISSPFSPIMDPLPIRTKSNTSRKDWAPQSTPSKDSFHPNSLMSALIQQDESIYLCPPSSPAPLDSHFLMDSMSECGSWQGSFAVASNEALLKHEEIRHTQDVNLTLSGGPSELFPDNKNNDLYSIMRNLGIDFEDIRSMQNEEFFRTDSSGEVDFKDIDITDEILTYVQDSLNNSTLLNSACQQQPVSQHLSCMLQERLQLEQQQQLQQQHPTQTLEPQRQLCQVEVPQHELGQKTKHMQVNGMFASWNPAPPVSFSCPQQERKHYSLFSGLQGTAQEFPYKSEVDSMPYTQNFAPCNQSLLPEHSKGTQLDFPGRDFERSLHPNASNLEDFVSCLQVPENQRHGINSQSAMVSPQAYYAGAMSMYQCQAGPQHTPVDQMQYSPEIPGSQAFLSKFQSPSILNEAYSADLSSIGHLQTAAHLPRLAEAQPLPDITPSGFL
Sequence of xanthine oxidase (P47989 whole entry, species assumed): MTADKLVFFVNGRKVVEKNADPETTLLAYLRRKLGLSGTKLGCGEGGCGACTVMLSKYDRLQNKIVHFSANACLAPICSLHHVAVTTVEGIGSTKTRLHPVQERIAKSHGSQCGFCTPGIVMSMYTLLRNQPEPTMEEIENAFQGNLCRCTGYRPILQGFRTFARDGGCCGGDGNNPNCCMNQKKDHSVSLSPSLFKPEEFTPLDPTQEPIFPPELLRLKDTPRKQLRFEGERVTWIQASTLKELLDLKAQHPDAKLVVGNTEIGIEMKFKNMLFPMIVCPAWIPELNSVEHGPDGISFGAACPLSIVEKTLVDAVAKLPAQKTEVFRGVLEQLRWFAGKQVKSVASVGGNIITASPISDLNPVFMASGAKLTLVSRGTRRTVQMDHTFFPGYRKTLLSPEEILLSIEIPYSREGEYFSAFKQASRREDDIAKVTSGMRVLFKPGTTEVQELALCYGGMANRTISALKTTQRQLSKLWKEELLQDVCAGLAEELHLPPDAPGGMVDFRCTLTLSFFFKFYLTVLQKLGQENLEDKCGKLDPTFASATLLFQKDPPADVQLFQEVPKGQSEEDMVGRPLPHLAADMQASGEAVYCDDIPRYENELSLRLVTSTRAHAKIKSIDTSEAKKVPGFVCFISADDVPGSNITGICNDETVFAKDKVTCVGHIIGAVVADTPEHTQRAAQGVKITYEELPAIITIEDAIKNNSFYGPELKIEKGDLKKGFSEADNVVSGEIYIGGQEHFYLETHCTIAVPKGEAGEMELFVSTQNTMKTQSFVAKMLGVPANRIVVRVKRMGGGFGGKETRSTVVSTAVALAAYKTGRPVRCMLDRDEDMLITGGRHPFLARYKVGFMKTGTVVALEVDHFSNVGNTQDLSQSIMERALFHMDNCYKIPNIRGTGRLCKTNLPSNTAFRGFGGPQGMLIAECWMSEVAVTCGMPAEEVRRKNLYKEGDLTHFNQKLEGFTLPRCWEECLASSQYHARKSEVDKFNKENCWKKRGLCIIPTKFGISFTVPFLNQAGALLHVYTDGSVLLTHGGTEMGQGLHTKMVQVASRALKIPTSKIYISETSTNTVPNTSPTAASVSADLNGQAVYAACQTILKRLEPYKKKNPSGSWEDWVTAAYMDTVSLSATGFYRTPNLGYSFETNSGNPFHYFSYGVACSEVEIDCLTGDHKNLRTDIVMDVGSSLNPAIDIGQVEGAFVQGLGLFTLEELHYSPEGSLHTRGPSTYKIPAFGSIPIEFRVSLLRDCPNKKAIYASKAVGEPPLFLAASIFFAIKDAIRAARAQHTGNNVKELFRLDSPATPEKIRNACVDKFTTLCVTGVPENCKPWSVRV

initial library screen result [1]: MUC1 dimerization inhibitory compounds
Molecule: O=c1c(O)c(-c2ccc(O)c(O)c2)oc2cc(O)ccc12 [Fisetin]
inhibition of xanthine oxidase [2]: inhibit xanthine oxidase

Molecule: COc1cccc(-c2cc(=O)c3ccccc3o2)c1N [PD98059, 2-(2′-amino-3′-methoxyphenyl)-oxanaphthalen-4-one]
inhibition of MEK [3]: potent inhibitor
initial library screen result [1]: MUC1 dimerization inhibitory compounds
TCDD binding to AHR [4]: suppressed TCDD binding

initial library screen result [1]: MUC1 dimerization inhibitory compounds
Molecule: O=c1c(O)c(-c2ccc(O)cc2O)oc2cc(O)cc(O)c12 [Morin, 3,5,7,2′,4′-pentahydroxyflavone]
ammonia, urea, lipid peroxidation [5]: significant reduction in ammonia, urea, lipid peroxidation

Molecule: O=c1c(O)c(-c2ccc(O)cc2)oc2cc(O)cc(O)c12 [Kaempferol]
inhibition (FIGS. 17A-B) [6]: showed inhibition
solubility in organic solvents ([7]; hot ethanol and diethyl ether): soluble in hot ethanol and diethyl ether
solubility in water ([7]; water): slightly soluble in water

Molecule: drotrecogin alfa
mortality [8]: about 25%

Molecule: MUC1-CD: 72-amino acid MUC1 cytoplasmic domain (SEQ ID NO:1)
Kd [9]: 33 nM
